Reference: patent publication US20210069295A1, “GALECTINS CONTROL MTOR IN RESPONSE TO ENDOMEMBRANE DAMAGE AND PROVIDE A MECHANISM AND TARGET FOR THE TREATMENT OF AUTOPHAGY-RELATED DISEASES” (STC. UNM, priority 2017, published 2021)
Peptide text beside a SMILES is read from it.

Experiments:
Format in all cases: cell-based
[1] = tested on: AMPK; assay: AMPK activation by immunoblotting of phosphorylated AMPKα, ACC and ULK1 in HEK293A cells
[2] = tested on: LC3; assay: Autophagy induction (LC3-II levels and LC3 puncta) in HEK293T cells; settings: SLC38A9 knockout and wild type HEK293T, 100 μM GPN
Protocol: (A) Analysis of mTOR activity and autophagy induction in HEK293T cells (WT, wild type) and SLC38A9 knockout (SLC38A9 KO) HEK293T derivatives treated with 100 μM GPN in full medium for the indicated time points. mTOR activity was monitored by immunoblotting analysis of S6K1 phosphorylation at T389 (p-T389). Autophagy induction was monitored by immunoblotting analysis of LC3-II. (B) Analysis of autophagy induction in SLC38A9 KO cells treated with GPN. WT and SLC38A9-KO (SLCKO) HEK293T cells were treated with 100 μM GPN in full medium for 30 min, and LC3 puncta were quantified by HC. […] Data, means±SEM, n≥3 independent experiments (500 primary objects counted per well; ≥ 5 wells/sample per each experiment), **p<0.01, ANOVA. […] WT and SLC38A9 KO HEK293T cells were treated with 100 μM GPN for 1 h followed by 1 h washout in full medium. mTOR activity was monitored by immunoblotting analysis of S6K1 p-T389 and ULK1 p-S757 phosphorylation. Autophagy induction was monitored by immunoblotting analysis of LC3-II. […] Control and FLAG-SLC38A9 overexpressing HEK293T cells were treated with 100 μM GPN in full medium for 30 min, and LC3 puncta were quantified by HC. […] Data, means±SEM, n≥3 independent experiments (500 primary objects counted per well; ≥5 wells/sample per each experiment), **p<0.01, ANOVA. […]

[3] = tested on: Gal8; assay: Immunoprecipitation of endogenous Gal8 complexes in THP-1 cells; settings: 100 μM GPN 1 h
Protocol: (A) Analysis of the puncta formation of galectins in response to GPN. HeLa cells overexpressing YFP-fused with the indicated galectins were treated with 100 μM GPN or without (Ctrl) in full medium for 1 h and galectin puncta were quantified by HC. […] White masks, algorithm defined cell boundaries (primary objects); green masks, computer-identified galectins puncta (target objects). Data, means±SEM, n≥3 independent experiments (500 primary objects counted per well; ≥5 wells/sample per each experiment); *p<0.05, **p<0.01, † p≥0.05, ANOVA. (B) Immunoprecipitation analysis of the interactions between galectins and mTOR or RagA GTPase. HEK293T cells overexpressing FLAG-tagged galectins were subjected to anti-FLAG immunoprecipitation followed by immunoblotting for endogenous mTOR or RagA. (C) Immunoprecipitation analysis of interactions between Gal8 and mTOR protein complexes in response to GPN treatment. THP-1 cells not treated or treated with 100 μM GPN in full medium for 1 h were subjected to immunoprecipitation with anti-Gal8 antibody, followed by immunoblotting for endogenous RagA, p14, mTOR or Raptor. (D) Analysis of the proximity of Gal8 to mTOR and other proteins in mTOR complexes in response to GPN. Biotinylated proteins from HEK293T cell expressing APEX2-vector or APEX2-Gal8, after GPN and biotin phenol (BP) treatment were affinity-enriched by binding to streptavidin-beads, and samples were analyzed by immunoblotting analysis for endogenous RagA, p14, mTOR or Raptor. Data, means±SEM, (n=3), **p<0.01, ANOVA. (E) Immunoprecipitation analysis of the interactions between Gal8 and RagA GTPase and its mutants. Lysates of HEK293T cells overexpressing FLAG-Gal8 and HA-tagged RagA proteins (RagAWT, RagAT21L or RagAQ66L) were subjected to anti-FLAG immunoprecipitation, followed by immunoblotting for HA-tagged RagA proteins. (F) Immunoprecipitation analysis of the interactions between Gal8 and RagC GTPase and its mutants. […]

NCC(=O)N[C@@H](Cc1ccccc1)C(=O)Nc1ccc2ccccc2c1 [GPN, glycyl-L-phenylalanine 2-naphththylamide] (HELM PEPTIDE1{G.F.[c1ccc2cc(N[*:1])ccc2c1]}$$$$V2.0)
ULK1 pS317 (activating AMPK phosphosite) ([1]; 100 μM GPN): increase
ULK1 pS757 (mTOR-dependent inactivating phosphosite) ([1]; 100 μM GPN): decreased
phosphorylation of S79 of acetyl-CoA carboxylase (ACC) ([1]; 100 μM GPN): elevated phosphorylation
AMPK activation (AMPKα T172 phosphorylation) ([1]; HEK293A, 100 μM GPN in full medium): activated
LC3-II levels and LC3 puncta [2]: increased robustly
association between Gal8 and LAMTOR2/p14 [3]: increased association
association between Gal8 and RagA [3]: increased
levels of Raptor and mTOR in complexes with Gal8 [3]: reduced levels
